Test results published in patent US10245275B2 (ViiV HEALTHCARE UK (NO.4) LIMITED, priority 2014, dated 2019).
Like-named read-outs stand apart in the source and are kept apart here.

Columns and labels:
[1] = system: WT (wild-type HIV virus; recombinant NL4-3 virus); experiment: microbe, parasite or virus in culture; assay type: cell-based, HIV-1
Method: (§1) MT-2 cells and 293T cells were obtained from the NIH AIDS Research and Reference Reagent Program. MT-2 cells were propagated in RPMI 1640 media supplemented with 10% heat-inactivated fetal bovine serum, […]. The 293T cells were propagated in DMEM media supplemented with 10% heat-inactivated fetal bovine serum (FBS), 100 units/mL penicillin G and 100 μg/mL streptomycin. […] A recombinant NL4-3 virus, in which a section of the nef gene from NL4-3 was replaced with the Renilla luciferase gene, was used as a reference virus. In addition, residue Gag P373 was converted to P373S. […] Transfections were performed in 293T cells using LipofectAMINE PLUS from Invitrogen (Carlsbad, Calif.), according to manufacturer's instruction. The virus was titered in MT-2 cells using luciferase enzyme activity as a marker. Luciferase was quantitated using the Dual Luciferase kit from Promega (Madison, Wis.), with modifications to the manufacturer's protocol. The diluted Passive Lysis solution was pre-mixed with the re-suspended Luciferase Assay Reagent and the re-suspended Stop & Glo Substrate (2:1:1 ratio). Fifty (50) μL of the mixture was added to each aspirated well on assay plates and luciferase activity was measured immediately on a Wallac TriLux (Perkin-Elmer). Antiviral activities of inhibitors toward the recombinant virus were quantified by measuring luciferase activity in cells infected for 4-5 days with NLRluc recombinants in the presence serial dilutions of the inhibitor.
WT refers to wild-type HIV virus. […]

[2] = system: HIV-1 NL4-3 gag A364V virus; experiment: microbe, parasite or virus in culture; assay type: cell-based
Method: as §1
Both recombinant viruses were used as described above in the HIV cell culture assay for the NL4-3 virus.

[3] = Human immunodeficiency virus 1, NL43, MT2, read-out: WT (EC50, uM), Table 1 regular screen, class symbol
[4] = Human immunodeficiency virus 1, NL43, MT2, read-out: A364V (EC50, uM), Table 1 regular screen, class symbol
[5] = Human immunodeficiency virus 1, NL43, MT2, read-out: WT (EC50, uM), Table 1 regular screen, MT-2 cells, luciferase readout
[6] = Human immunodeficiency virus 1, NL43, MT2, read-out: A364V (EC50, uM), Table 1 regular screen, MT-2 cells, luciferase readout

SMILES | EC50 [1, 3] [µM] | EC50 [2, 4] [µM] | EC50 [1, 5] [µM] | EC50 [2, 6] [µM]
C=C(C)[C@@H]1CC[C@]2(NCCC3(O)CCS(=O)(=O)CC3)CC[C@]3(C)[C@H](CC[C@@H]4[C@@]5(C)CC=C(C6=CC[C@](CF)(C(=O)O)CC6)C(C)(C)[C@@H]5CC[C@]43C)[C@@H]12 [Example 2-13, (S)-1-(fluoromethyl)-4-((1R,3aS,5aR,5bR,7aR,11aS,11bR,13aR,13bR)-3a-((2-(4-hydroxy-1,1-dioxidotetrahydro-2H-thiopyran-4-yl)ethyl)amino)-5a,5b,8,8,11a-pentamethyl-1-(prop-1-en-2-yl)-2,3,3a,4,5,5a,5b,6,7,7a,8,11,11a,11b,12,13,13a,13b-octadecahydro-1H-cyclopenta[a]chrysen-9-yl)cyclohex-3-enecarboxylic acid] | < 0.05 | > 0.05 | – | –
C=C(C)[C@@H]1CC[C@]2(NCCC3(O)CCN(C(C)=O)CC3)CC[C@]3(C)[C@H](CC[C@@H]4[C@@]5(C)CC=C(C6=CC[C@](CF)(C(=O)O)CC6)C(C)(C)[C@@H]5CC[C@]43C)[C@@H]12 [Example 2-15, (S)-4-((1R,3aS,5aR,5bR,7aR,11aS,11bR,13aR,13bR)-3a-((2-(1-acetyl-4-hydroxypiperidin-4-yl)ethyl)amino)-5a,5b, 8,8,11a-pentamethyl-1-(prop-1-en-2-yl)-2,3,3a,4,5,5a,5b,6,7,7a,8,11,11a,11b,12,13,13a,13b-octadecahydro-1H-cyclopenta[a]chrysen-9-yl)-1-(fluoromethyl)cyclohex-3-enecarboxylic acid] | – | – | 0.00173 | 0.151
C=C(C)[C@@H]1CC[C@]2(NCCC3(O)CCC(OS(C)(=O)=O)CC3)CC[C@]3(C)[C@H](CC[C@@H]4[C@@]5(C)CC=C(C6=CC[C@](CF)(C(=O)O)CC6)C(C)(C)[C@@H]5CC[C@]43C)[C@@H]12 (stereo partly drawn) [Example 2-22, (S)-1-(fluoromethyl)-4-((1R,3aS,5aR,5bR,7aR,11aS,11bR,13aR,13bR)-3a-((2-(1-hydroxy-4-((methylsulfonyl)oxy)cyclohexyl)ethyl)amino)-5a,5b,8,8,11a-pentamethyl-1-(prop-1-en-2-yl)-2,3,3a,4,5,5a,5b,6,7,7a,8,11,11a,11b,12,13,13a,13b-octadecahydro-1H-cyclopenta[a]chrysen-9-yl)cyclohex-3-enecarboxylic acid] | – | – | 0.00315 | 0.107
C=C(C)[C@@H]1CC[C@]2(CNCC(C)(C)N3CCS(=O)(=O)CC3)CC[C@]3(C)[C@H](CC[C@@H]4[C@@]5(C)CC=C(C6=CC[C@](CF)(C(=O)O)CC6)C(C)(C)[C@@H]5CC[C@]43C)[C@@H]12 [Example 10, (S)-4-((1R,3aS,5aR,5bR,7aR,11aS,11bR,13aR,13bR)-3a-(((2-(1,1-dioxidothiomorpholino)-2-methylpropyl)amino)methyl)-5a,5b, 8,8,11a-pentamethyl-1-(prop-1-en-2-yl)-2,3,3a,4,5,5a,5b,6,7,7a,8,11,11a,11b,12,13,13a,13b-octadecahydro-1H-cyclopenta[a]chrysen-9-yl)-1-(fluoromethyl)cyclohex-3-enecarboxylic acid] | < 0.05 | < 0.05 | – | –
C=C(C)[C@@H]1CC[C@]2(NCCN3CCSCC3C(=O)O)CC[C@]3(C)[C@H](CC[C@@H]4[C@@]5(C)CC=C(C6=CC[C@@](CF)(C(=O)O)CC6)C(C)(C)[C@@H]5CC[C@]43C)[C@@H]12 (stereo partly drawn) [Example 18, 4-(2-(((1R,3aS,5aR,5bR,7aR,11aS,11bR,13aR,13bR)-9-((R)-4-carboxy-4-(fluoromethyl)cyclohex-1-en-1-yl)-5a,5b,8,8,11a-pentamethyl-1-(prop-1-en-2-yl)-2,3,3a,4,5,5a,5b,6,7,7a,8,11,11a,11b,12,13,13a,13b-octadecahydro-1H-cyclopenta[a]chrysen-3a-yl)amino)ethyl)thiomorpholine-3-carboxylic acid] | – | – | 0.0243 | 3
C=C(C)[C@@H]1CC[C@]2(NCCS(=O)(=O)CCN3CCS(=O)(=O)CC3)CC[C@]3(C)[C@H](CC[C@@H]4[C@@]5(C)CC=C(C6=CC[C@](CF)(C(=O)O)CC6)C(C)(C)[C@@H]5CC[C@]43C)[C@@H]12 [Example 43, (S)-4-((1R,3aS,5aR,5bR,7aR,11aS,11bR,13aR,13bR)-3a-((2-((2-(1,1-dioxidothiomorpholino)ethyl)sulfonyl)ethyl)amino)-5a,5b,8,8,11a-pentamethyl-1-(prop-1-en-2-yl)-2,3,3a,4,5,5a,5b,6,7,7a,8,11,11a,11b,12,13,13a,13b-octadecahydro-1H-cyclopenta[a]chrysen-9-yl)-1-(fluoromethyl)cyclohex-3-enecarboxylic acid] | – | – | 0.00335 | 0.585
C=C(C)[C@@H]1CC[C@]2(C(=O)NCCN3CCS(=O)(=O)CC3)CC[C@]3(C)[C@H](CC[C@@H]4[C@@]5(C)CC=C(C6=CC[C@@](CF)(C(=O)O)CC6)C(C)(C)[C@@H]5CC[C@]43C)[C@@H]12 [Example 38, (R)-4-((1R,3aS,5aR,5bR,7aR,11aS,11bR,13aR,13bR)-3a-((2-(1,1-dioxidothiomorpholino)ethyl)carbamoyl)-5a,5b,8,8,11a-pentamethyl-1-(prop-1-en-2-yl)-2,3,3a,4,5,5a,5b,6,7,7a,8,11,11a,11b,12,13,13a,13b-octadecahydro-1H-cyclopenta[a]chrysen-9-yl)-1-(fluoromethyl)cyclohex-3-enecarboxylic acid] | < 0.05 | < 0.05 | – | –
C=C(C)[C@@H]1CC[C@]2(NCCN3CC(C)S(=O)(=O)C(C)C3)CC[C@]3(C)[C@H](CC[C@@H]4[C@@]5(C)CC=C(C6=CC[C@](CF)(C(=O)O)CC6)C(C)(C)[C@@H]5CC[C@]43C)[C@@H]12 (stereo partly drawn) [Example 25, (1S)-4-((1R,3aS,5aR,5bR,7aR,11aS,11bR,13aR,13bR)-3a-((2-(2,6-dimethyl-1,1-dioxidothiomorpholino)ethyl)amino)-5a,5b, 8,8,11a-pentamethyl-1-(prop-1-en-2-yl)-2,3,3a,4,5,5a,5b,6,7,7a,8,11,11a,11b,12,13,13a,13b-octadecahydro-1H-cyclopenta[a]chrysen-9-yl)-1-(fluoromethyl)cyclohex-3-enecarboxylic acid] | < 0.05 | > 0.05 | – | –
C=C(C)[C@@H]1CC[C@]2(NCCC3CCOCC3)CC[C@]3(C)[C@H](CC[C@@H]4[C@@]5(C)CC=C(C6=CC[C@](CF)(C(=O)O)CC6)C(C)(C)[C@@H]5CC[C@]43C)[C@@H]12 [Example 9, (S)-1-(fluoromethyl)-4-((1R,3aS,5aR,5bR,7aR,11aS,11bR,13aR,13bR)-5a,5b,8,8,11a-pentamethyl-1-(prop-1-en-2-yl)-3a-((2-(tetrahydro-2H-pyran-4-yl)ethyl)amino)-2,3,3a,4,5,5a,5b,6,7,7a,8,11,11a,11b,12,13,13a,13b-octadecahydro-1H-cyclopenta[a]chrysen-9-yl)cyclohex-3-enecarboxylic acid] | < 0.05 | > 0.05 | – | –
